# Measured values as given in patent US20250051347A1, “BIFUNCTIONAL CHIMERIC HETEROCYCLIC COMPOUND AND USE THEREOF AS ANDROGEN RECEPTOR DEGRADER” (Hinova Pharmaceuticals, Inc., priority 2021, published 2025).
# Target: T1, androgen receptor (AR) splicing variant AR-v7 (Homo sapiens, UniProt P10275)
# T1 construct: The degradation activity of compounds on AR-v7 in 22RV1 cells; host or cells: 22RV1 cells
# T1 sequence (P10275 1-644 isoform P10275-3): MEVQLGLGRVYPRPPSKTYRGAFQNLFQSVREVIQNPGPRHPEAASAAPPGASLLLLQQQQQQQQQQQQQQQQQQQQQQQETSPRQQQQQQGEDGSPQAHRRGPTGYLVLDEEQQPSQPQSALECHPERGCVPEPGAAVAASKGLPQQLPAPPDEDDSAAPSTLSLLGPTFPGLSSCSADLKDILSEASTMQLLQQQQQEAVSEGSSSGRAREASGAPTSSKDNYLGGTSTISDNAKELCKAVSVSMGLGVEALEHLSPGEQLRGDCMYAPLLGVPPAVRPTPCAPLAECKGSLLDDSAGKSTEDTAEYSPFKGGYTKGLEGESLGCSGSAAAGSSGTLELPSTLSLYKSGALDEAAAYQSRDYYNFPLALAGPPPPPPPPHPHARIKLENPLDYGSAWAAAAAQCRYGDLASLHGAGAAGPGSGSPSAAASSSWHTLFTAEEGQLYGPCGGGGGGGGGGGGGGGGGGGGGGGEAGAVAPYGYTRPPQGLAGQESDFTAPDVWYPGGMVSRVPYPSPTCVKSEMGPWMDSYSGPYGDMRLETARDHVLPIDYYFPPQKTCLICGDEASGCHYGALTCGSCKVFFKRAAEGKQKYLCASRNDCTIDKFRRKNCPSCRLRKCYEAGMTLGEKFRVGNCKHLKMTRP
# Test: Degradation activity on androgen receptor splicing variant AR-v7 in 22RV1 cells (ELISA)
# Format: cell-based
# Details: AR-v7 degradation in 22RV1 cells, 48 h, class symbols
row,DC50 [nM],Compound
1,11 to 100,"CC(C)(c1ccc(Oc2cnc(CN3CC(F)(F)C3)nc2)cc1)c1ccc(OC2CC(Nc3ccc4c(c3)C(=O)N(C3CCC(=O)NC3=O)C4=O)C2)cc1 (centres unmarked) [Example 479, 5-(((1r,3r)-3-(4-(2-(4-((2-((3,3-difluoroazetidin-1-yl)methyl)pyrimidin-5-yl)oxy)phenyl)propan-2-yl)phenoxy)cyclobutyl)amino)-2-(2,6-dioxopiperidin-3-yl)isoindolin-1,3-dione]"
2,11 to 100,Cc1nc(-c2ccnc(Oc3ccc(C(C)(C)c4ccc(O[C@H]5C[C@@H](Nc6ccc7c(c6)C(=O)N(C6CCC(=O)NC6=O)C7=O)C5)cc4)cc3)c2)no1 (some centres unmarked) [Example 481]
3,11 to 100,Cc1nnc(-c2ncc(Oc3ccc(C(C)(C)c4ccc(O[C@H]5C[C@@H](Nc6ccc7c(c6)C(=O)N(C6CCC(=O)NC6=O)C7=O)C5)cc4)cc3)cn2)o1 (some centres unmarked) [Example 484]
4,11 to 100,"CC(=O)c1nccc(COc2ccc(C(C)(C)c3ccc(OCC4CN(c5ccc6c(c5)C(=O)N(C5CCC(=O)NC5=O)C6=O)C4)cc3)cc2)n1 (centres unmarked) [Example 485, 5-(3-((4-(2-(4-((2-acetylpyrimidin-4-yl)methoxy)phenyl)propan-2-yl)phenoxy)methyl)azetidin-1-yl)-2-(2,6-dioxopiperidin-3-yl)isoindolin-1,3-dione]"
5,101 to 1000,CC(=O)c1nccc(COc2ccc(C(C)(C)c3ccc(OC4CCN(c5ccc6c(c5)C(=O)N(C5CCC(=O)NC5=O)C6=O)C4)cc3)cc2)n1 (centres unmarked) [Example 486]
6,11 to 100,CC(=O)c1nccc(COc2ccc(C(C)(C)c3ccc(N4CC5(C4)CN(c4ccc6c(c4)C(=O)N(C4CCC(=O)NC4=O)C6=O)C5)cc3)cc2)n1 (centres unmarked) [Example 488]
7,1000 to 5000,CC(=O)c1nccc(COc2ccc(C(C)(C)c3ccc(OC4CC5(CCN(c6ccc7c(c6)C(=O)N(C6CCC(=O)NC6=O)C7=O)CC5)C4)cc3)cc2)n1 (centres unmarked) [Example 489]
8,101 to 1000,CC(=O)c1nccc(COc2ccc(C(C)(C)c3ccc(OC4CCC5(C4)CN(c4ccc6c(c4)C(=O)N(C4CCC(=O)NC4=O)C6=O)C5)cc3)cc2)n1 (centres unmarked) [Example 490]
9,101 to 1000,CC(C)(c1ccc(OCc2ccnc(N3CC4(COC4)C3)n2)cc1)c1ccc(OCC2(CNc3ccc4c(c3)C(=O)N(C3CCC(=O)NC3=O)C4=O)CC2)cc1 (centres unmarked) [Example 495]
10,1000 to 5000,CC(C)(c1ccc(OCCC#Cc2ccc3c(c2)C(=O)N(C2CCC(=O)NC2=O)C3=O)cc1)c1ccc(OCc2ccnc(N3CC4(COC4)C3)n2)cc1 (centres unmarked) [Example 497]
11,11 to 100,"CC(C)(c1ccc(OCc2ccnc(N3CC4(COC4)C3)n2)cc1)c1ccc(OCC2(Nc3ccc4c(c3)C(=O)N(C3CCC(=O)NC3=O)C4=O)CCC2)cc1 (centres unmarked) [Example 498, 5-((1-((4-(2-(4-((2-(2-oxa-6-azaspiro[3.3]heptan-6-yl)pyrimidin-4-yl)methoxy)phenyl)propan-2-yl)phenoxy)methyl)cyclobutyl)amino)-2-(2,6-dioxopiperidin-3-yl)isoindolin-1,3-dione]"
12,11 to 100,"CC(C)(c1ccc(OCc2ccnc(N3CC4(COC4)C3)n2)cc1)c1ccc(O[C@]2(C)C[C@@H](Nc3ccc4c(c3)C(=O)N(C3CCC(=O)NC3=O)C4=O)C2)cc1 (some centres unmarked) [Example 499, 5-((1r,3r)-3-(4-(2-(4-(4-((2-(2-oxa-6-azaspiro[3.3]heptane-6-yl)pyrimidin-4-yl)methoxy)phenyl)propan-2-yl)phenoxy)-3-methylcyclobutyl)amino)-2-(2,6-dioxopiperidin-3-yl)isoindolin-1,3-dione]"
13,11 to 100,"CC(C)(c1ccc(OCc2ccnc(N3CCC4(CCNC4)CC3)n2)cc1)c1ccc(O[C@H]2C[C@@H](Nc3ccc4c(c3)C(=O)N(C3CCC(=O)NC3=O)C4=O)C2)cc1 (some centres unmarked) [Example 500, 5-((1s,3s)-3-(4-(2-(4-(4-((2-(2,8-diazaspiro[4.5]decan-8-yl)pyrimidin-4-yl)methoxy)phenyl)propan-2-yl)phenoxy)cyclobutyl)amino)-2-(2,6-dioxopyridin-3-yl)isoindolin-1,3-dione]"
14,11 to 100,CC(C)(c1ccc(OCc2ccnc(N3CC4(COC4)C3)n2)cc1)c1ccc(C(=O)N2CC(Nc3ccc4c(c3)C(=O)N(C3CCC(=O)NC3=O)C4=O)C2)cc1 (centres unmarked) [Example 503]
15,1000 to 5000,"CC(c1ccc(C(C)(C)c2ccc(OCc3ccnc(N4CC5(COC5)C4)n3)cc2)cc1)N1CC(Nc2ccc3c(c2)C(=O)N(C2CCC(=O)NC2=O)C3=O)C1 (centres unmarked) [Example 505, 5-((1-(1-(4-(2-(4-(4-) 4-((2-(2-oxa-6-azaspiro[3.3]heptane-6-yl)pyrimidin-4-yl)methoxy)phenyl)propan-2-yl)phenyl)ethyl)azetidin-3-yl)amino)-2-(2,6-dioxopiperidin-3-yl)isoindolin-1,3-dione]"
16,11 to 100,"CC(C)(c1ccc(CNc2ccc3c(c2)C(=O)N(C2CCC(=O)NC2=O)C3=O)cc1)c1ccc(OCc2ccnc(N3CC4(COC4)C3)n2)cc1 (centres unmarked) [Example 507, 5-((4-(2-(4-((2-(2-oxa-6-azaspiro[3.3]heptan-6-yl)pyrimidin-4-yl)methoxy)phenyl)propan-2-yl)benzyl)amino)-2-(2,6-dioxopiperidin-3-yl)isoindolin-1,3-dione]"
17,101 to 1000,"CN(C(=O)c1ccc(C(C)(C)c2ccc(OCc3ccnc(N4CC5(COC5)C4)n3)cc2)cc1)C1CN(c2ccc3c(c2)C(=O)N(C2CCC(=O)NC2=O)C3=O)C1 (centres unmarked) [Example 508, 4-(2-(4-((2-(2-oxa-6-azaspiro[3.3]heptan-6-yl)pyrimidin-4-yl)methoxy)phenyl)propan-2-yl)-N-(1-(2-(2,6-dioxopiperidin-3-yl)-1,3-dioxoisoindolin-5-yl)azetidin-3-yl)-N-methylbenzamide]"
18,11 to 100,CC(C)(c1ccc(CNC2CN(c3ccc4c(c3)C(=O)N(C3CCC(=O)NC3=O)C4=O)C2)cc1)c1ccc(OCc2ccnc(N3CC4(COC4)C3)n2)cc1 (centres unmarked) [Example 509]
19,11 to 100,Cc1nc(-c2ncc(Oc3ccc(C(C)(C)c4ccc(O[C@H]5C[C@H](Nc6ccc7c(c6)C(=O)N(C6CCC(=O)NC6=O)C7=O)C5)cc4)cc3)cc2F)no1 (some centres unmarked) [Example 511]
20,11 to 100,Cc1nnc(-c2coc(Oc3ccc(C(C)(C)c4ccc(O[C@H]5C[C@H](Nc6ccc7c(c6)C(=O)N(C6CCC(=O)NC6=O)C7=O)C5)cc4)cc3)n2)o1 (some centres unmarked) [Example 514]
21,11 to 100,CC(C)(c1ccc(Oc2cnc(-n3nccn3)c(Cl)c2)cc1)c1ccc(O[C@H]2C[C@H](Nc3ccc4c(c3)C(=O)N(C3CCC(=O)NC3=O)C4=O)C2)cc1 (some centres unmarked) [Example 515]
22,11 to 100,CC(c1ccc(Oc2cnc(-n3ccnn3)nc2)cc1)c1ccc(O[C@H]2C[C@H](Nc3ccc4c(c3)C(=O)N(C3CCC(=O)NC3=O)C4=O)C2)cc1 (some centres unmarked) [Example 519]
23,11 to 100,O=C1CCC(N2C(=O)c3ccc(N[C@H]4C[C@H](Oc5ccc(Cc6ccc(Oc7cnc(-n8ccnn8)nc7)cc6)cc5)C4)cc3C2=O)C(=O)N1 (some centres unmarked) [Example 520]
24,11 to 100,CC(O)c1ccc(Oc2ccc(C(C)(C)c3ccc(O[C@H]4C[C@@H](Nc5ccc6c(c5)C(=O)N(C5CCC(=O)NC5=O)C6=O)C4)cc3)cc2)cn1 (some centres unmarked) [Example 524]
25,11 to 100,CCNC(=O)c1nccc(COc2ccc(C(C)(C)c3ccc(OC4CC(Nc5ccc6c(c5)C(=O)N(C5CCC(=O)NC5=O)C6=O)C4)cc3)cc2)n1 (centres unmarked) [Example 531]
26,11 to 100,CN1CCN(c2ncc(COc3ccc(C(C)(C)c4ccc(OC5CC(Nc6ccc7c(c6)C(=O)N(C6CCC(=O)NC6=O)C7=O)C5)cc4)cc3)cn2)CC1 (centres unmarked) [Example 534]
27,11 to 100,Cc1cncc(Oc2ccc(C(C)(C)c3ccc(O[C@H]4C[C@@H](Nc5ccc6c(c5)C(=O)N(C5CCC(=O)NC5=O)C6=O)C4)cc3)cc2)n1 (some centres unmarked) [Example 537]
28,11 to 100,CC(C)(c1ccc(Oc2ccc(-n3nccn3)nc2)cc1)c1ccc(O[C@H]2C[C@@H](Nc3ccc4c(c3)C(=O)N(C3CCC(=O)NC3=O)C4=O)C2)cc1 (some centres unmarked) [Example 540]
29,11 to 100,"CC(C)(c1ccc(Oc2ccc(-n3ccnn3)nc2)cc1)c1ccc(O[C@H]2C[C@@H](Nc3ccc4c(c3)C(=O)N(C3CCC(=O)NC3=O)C4=O)C2)cc1 (some centres unmarked) [Example 541, 5-((1s,3s)-3-(4-(2-(4-((6-(1H-1,2,3-triazol-1-yl)pyridin-3-yl)oxy)phenyl)propan-2-ylphenoxy)cyclobutyl)amino)-2-(2,6-dioxopiperidin-3-yl)isoindolin-1,3-dione]"
30,11 to 100,CC(C)(c1ccc(Oc2ccc(-n3cccn3)nc2)cc1)c1ccc(O[C@H]2C[C@@H](Nc3ccc4c(c3)C(=O)N(C3CCC(=O)NC3=O)C4=O)C2)cc1 (some centres unmarked) [Example 542]

row,Compound,DC50 [nM]
1,"Cc1nc(-c2ncc(Oc3ccc(C(C)(C)c4ccc(OC5CC(Nc6cc7c(cn6)C(=O)N(C6CCC(=O)NC6=O)C7=O)C5)cc4)cc3)cn2)no1 (centres unmarked) [Example 530, 2-(2,6-dioxopiperidin-3-yl)-6-((1r,3r)-3-(4-(2-(4-((2-(5-methyl-1,2,4-oxadiazol-3-yl)pyrimidin-5-yl)oxy)phenyl)propan-2-yl)phenoxy)cyclobutyl)amino)-1H-pyrrolo[3,4-c]pyridin-1,3(2H)-dione]",101 to 1000
2,"Cc1nc(-c2ccc(Oc3ccc(C(C)(C)c4ccc(OC5CC(Nc6ccc7c(c6)C(=O)N(C6CCC(=O)NC6=O)C7=O)C5)cc4)cc3)cn2)no1 (centres unmarked) [Example 543, 2-(2,6-dioxopiperidin-3-yl)-5-(1s,3s)-3-(4-(2-(4-(6-(5-methyl-1,2,4-oxadiazol-3-yl)pyridin-3-yl)oxy)phenyl)propan-2-yl)phenoxy)cyclobutyl)amino) isoindolin-1,3-dione]",11 to 100
